These results are taken from US20260092076A1, “NOVEL COMPOUNDS” (Hoffmann-La Roche Inc., priority 2023, published 2026).

Where only a bound is given, the exact number is not on record here.

In assay [1] the target is T1, NLRP3 (Homo sapiens, UniProt Q96P20). Put plainly: Human whole blood IL-1β release assay. The class given is cell-based. The note with it: human whole blood with 1 μg/ml LPS, compound 3 hours, nigericin 10 μM 1 hr, IL-1β by AlphaLisa. How it is done:
For systemic delivery, the ability to inhibit NLRP3 when the compounds are present within the bloodstream is of great importance. For this reason, the NLRP3 inhibitory activity of a number of compounds in human whole blood was investigated in accordance with the following protocol. • Human whole blood in Li-heparin tubes was obtained from healthy donors from a volunteer donor panel. • Plate out 80 μl of whole blood containing 1 μg/ml of LPS in 96-well, clear bottom cell culture plate (Corning #3585) • Add 10 μl compound (8 points half-log dilution with 10 μM top dose) or vehicle (DMSO 0.1% FAC) to the appropriate wells • Incubate for 3 hours at 37° C., 5% CO2 • Add 10 μl nigericin (Sigma #N7143) (10 μM FAC) to all wells • Incubate for 1 hr at 37° C., 5% CO2 • At the end of the incubation period, spin plates at 300×g for 5 mins to pellet cells and remove 20 μl of supernatant and add to 96-well v-bottom plates for IL-1β analysis (note: these plates containing the supernatants can be stored at −80° C. to be analysed at a later date) • IL-1β was measured according to the manufacturer protocol (Perkin Elmer-AlphaLisa IL-1 Kit AL220F-5000) • IC50 data is fitted to a non-linear regression equation (log inhibitor vs response-variable slope 4-parameters)
For orientation: In Alpha technology, singlet oxygen from a donor bead excites a nearby acceptor bead.

The target of assay [2] is T1, NLRP3. Put plainly: THP-1 cells pyroptosis assay. It is filed as cell-based. Details: Seed THP-1 cells (25,000 cells/well) containing 1.0 μg/ml LPS in 40 μl of RPMI medium; host or cells: THP-1 cells, LPS-primed, nigericin-stimulated. To be noted: THP-1 cells with 1.0 μg/ml LPS, compound 3 hours, nigericin 5 μM 1 hr, resazurin readout. How it is done:
THP-1 cells (ATCC #TIB-202) were grown in RPMI containing L-glutamine (Gibco #11835) supplemented with 1 mM sodium pyruvate (Sigma #S8636) and penicillin (100 units/ml)/streptomycin (0.1 mg/ml) (Sigma #P4333) in 10% Fetal Bovine Serum (FBS) (Sigma #F0804). The cells were routinely passaged and grown to confluency (˜10^6 cells/ml). On the day of the experiment, THP-1 cells were harvested and resuspended into RPMI medium (without FBS). The cells were then counted and viability (>90%) checked by Trypan blue (Sigma #T8154). Appropriate dilutions were made to give a concentration of 625,000 cells/ml. To this diluted cell solution was added LPS (Sigma #L4524) to give a 1 μg/ml Final Assay Concentration (FAC). 40 μl of the final preparation was aliquoted into each well of a 96-well plate. The plate thus prepared was used for compound screening.
The following method step-by-step assay was followed for compound screening. • Seed THP-1 cells (25,000 cells/well) containing 1.0 μg/ml LPS in 40 μl of RPMI medium (without FBS) in 96-well, black walled, clear bottom cell culture plates coated with poly-D-lysine (VWR #734-0317) • Add 5 μl compound (8 points half-log dilution, with 10 μM top dose) or vehicle (DMSO 0.1% FAC) to the appropriate wells • Incubate for 3 hours at 37° C., 5% CO2 • Add 5 μl nigericin (Sigma #N7143) (FAC 5 μM) to all wells • Incubate for 1 hr at 37° C., 5% CO2 • At the end of the incubation period, spin plates at 300×g for 3 mins and remove supernatant • Then add 50 μl of resazurin (Sigma #R7017) (FAC 100 μM resazurin in RPMI medium without FBS) and incubate plates for a further 1-2 hours at 37° C. and 5% CO2 • Plates were read in an Envision reader at Ex 560 nm and Em 590 nm • IC50 data is fitted to a non-linear regression equation (log inhibitor vs response-variable slope 4-parameters)
(In general: Alamar Blue is a resazurin reagent that responds to reducing activity.)

T1 sequence (Q96P20 whole entry): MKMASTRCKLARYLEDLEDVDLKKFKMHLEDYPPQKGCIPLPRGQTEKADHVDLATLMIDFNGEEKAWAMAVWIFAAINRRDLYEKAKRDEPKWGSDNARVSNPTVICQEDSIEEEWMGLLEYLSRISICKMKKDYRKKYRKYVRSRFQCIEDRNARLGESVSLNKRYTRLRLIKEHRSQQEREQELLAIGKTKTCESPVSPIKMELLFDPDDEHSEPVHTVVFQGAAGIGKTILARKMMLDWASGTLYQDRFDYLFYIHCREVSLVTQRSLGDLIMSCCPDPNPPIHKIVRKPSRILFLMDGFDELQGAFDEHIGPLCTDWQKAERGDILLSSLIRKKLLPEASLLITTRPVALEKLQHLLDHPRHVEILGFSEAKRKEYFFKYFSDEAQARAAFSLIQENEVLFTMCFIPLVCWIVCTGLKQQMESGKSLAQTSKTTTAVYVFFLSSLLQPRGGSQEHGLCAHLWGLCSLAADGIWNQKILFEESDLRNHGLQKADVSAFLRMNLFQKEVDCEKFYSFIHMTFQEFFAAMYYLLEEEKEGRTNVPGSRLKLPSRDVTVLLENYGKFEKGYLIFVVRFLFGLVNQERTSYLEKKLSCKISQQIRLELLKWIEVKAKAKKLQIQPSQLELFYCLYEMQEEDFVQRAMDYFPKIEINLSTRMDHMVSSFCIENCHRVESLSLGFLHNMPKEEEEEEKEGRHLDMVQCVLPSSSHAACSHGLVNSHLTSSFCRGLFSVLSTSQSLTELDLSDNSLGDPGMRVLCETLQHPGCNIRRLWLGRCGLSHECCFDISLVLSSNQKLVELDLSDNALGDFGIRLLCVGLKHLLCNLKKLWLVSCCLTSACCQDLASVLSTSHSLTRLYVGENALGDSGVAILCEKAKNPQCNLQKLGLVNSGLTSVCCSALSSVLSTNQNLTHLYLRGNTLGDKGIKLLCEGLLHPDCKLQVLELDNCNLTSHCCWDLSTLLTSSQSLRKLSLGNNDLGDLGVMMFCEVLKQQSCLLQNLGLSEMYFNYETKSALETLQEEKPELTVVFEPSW

On to `Cc1cc(C(F)(F)F)cc(O)c1-c1ccc2oc(N3CCc4cc(=O)[nH]cc4C3)nc2n1` [Example 19, 7-[5-[2-Hydroxy-6-methyl-4-(trifluoromethyl)phenyl]oxazolo[4,5-b]pyridin-2-yl]-2,5,6,8-tetrahydro-2,7-naphthyridin-3-one], for which the values for the IC50 in assay [1] and in assay [2] were 0.962 µM and 0.0111 µM, respectively.
The matching figures for `Cc1cc(Cl)cc(O)c1-c1ccc2oc(N3Cc4c[nH]nc4C3)nc2n1` [Example 14, 5-Chloro-2-[2-(4,6-dihydro-2H-pyrrolo[3,4-c]pyrazol-5-yl)oxazolo[4,5-b]pyridin-5-yl]-3-methyl-phenol]: 0.305 µM and 0.0562 µM.
For `COc1ncc2c(n1)CCN(c1nc3nc(-c4c(C)cc(Cl)cc4O)ccc3o1)C2` [Example 32, 5-Chloro-2-[2-(2-methoxy-7,8-dihydro-5H-pyrido[4,3-d]pyrimidin-6-yl)oxazolo[4,5-b]pyridin-5-yl]-3-methyl-phenol] the same measures were 0.285 µM and 0.0249 µM.
For `Cc1cc(C(F)(F)F)cc(O)c1-c1ccc2oc(N3CCc4ncncc4C3)nc2n1` [Example 24, 2-[2-(7,8-Dihydro-5H-pyrido[4,3-d]pyrimidin-6-yl)oxazolo[4,5-b]pyridin-5-yl]-3-methyl-5-(trifluoromethyl)phenol], the figures for the half-maximal inhibitory concentration (IC50) in assay [1] and in assay [2] were 0.192 µM and 0.0236 µM, respectively.
For the compound `Cc1cc(Cl)cc(O)c1-c1ccc2oc(N3Cc4cc(=O)[nH]nc4C3)nc2n1` [Example 38, 6-[5-(4-chloro-2-hydroxy-6-methyl-phenyl)oxazolo[4,5-b]pyridin-2-yl]-5,7-dihydro-2H-pyrrolo[3,4-c]pyridazin-3-one], the results for the concentration for half-maximal inhibition (IC50) in assay [1] and in assay [2] were 0.168 µM and 0.022 µM, respectively.
For the compound `Cc1ncc2c(n1)CCN(c1nc3nc(-c4c(C)cc(Cl)cc4O)ccc3o1)C2` [Example 11, 5-Chloro-3-methyl-2-[2-(2-methyl-7,8-dihydro-5H-pyrido[4,3-d]pyrimidin-6-yl)oxazolo[4,5-b]pyridin-5-yl]phenol], the figures for the half-maximal inhibitory concentration (IC50) in assay [1] and in assay [2] were 0.225 µM and 0.0271 µM, respectively.
For `Cc1cc(Cl)cc(O)c1-c1ccc2oc(N3CCc4cc(=O)[nH]cc4C3)nc2n1` [Example 27, 7-[5-(4-Chloro-2-hydroxy-6-methyl-phenyl)oxazolo[4,5-b]pyridin-2-yl]-2,5,6,8-tetrahydro-2,7-naphthyridin-3-one] the same measures were 0.423 µM and 0.0522 µM.
On to `Cc1cc(Cl)cc(O)c1-c1ccc2oc(N3Cc4c[nH]c(=O)cc4C3)nc2n1` [Example 4, 2-[5-(4-Chloro-2-hydroxy-6-methyl-phenyl)oxazolo[4,5-b]pyridin-2-yl]-3,5-dihydro-1H-pyrrolo[3,4-c]pyridin-6-one], for which the IC50 in assay [1] worked out at 0.077 µM; in assay [2], 0.0017 µM.
The matching figures for `Cc1cc(C(F)(F)F)cc(O)c1-c1ccc2oc(N3Cc4cc(=O)n(C)nc4C3)nc2n1` [Example 22, 6-[5-[2-Hydroxy-6-methyl-4-(trifluoromethyl)phenyl]oxazolo[4,5-b]pyridin-2-yl]-2-methyl-5,7-dihydropyrrolo[3,4-c]pyridazin-3-one]: at least 10 µM and 0.0207 µM.
For `Cc1cc(C(F)(F)F)cc(O)c1-c1ccc2oc(N3Cc4c[nH]c(=O)cc4C3)nc2n1` [Example 1, 2-[5-[2-Hydroxy-6-methyl-4-(trifluoromethyl)phenyl]oxazolo[4,5-b]pyridin-2-yl]-3,5-dihydro-1H-pyrrolo[3,4-c]pyridin-6-one] the same measures were 0.108 µM and 0.0007 µM.
In the case of `OCc1cc(Cl)cc(O)c1-c1cnc2oc(N3Cc4ccncc4C3)nc2n1` [Example 30, 5-Chloro-2-[2-(1,3-dihydropyrrolo[3,4-c]pyridin-2-yl)oxazolo[4,5-b]pyrazin-5-yl]-3-(hydroxymethyl)phenol], the half-inhibitory concentration (IC50) amounted to 0.326 µM in assay [1] and 0.0248 µM in assay [2].
On to `Cc1cc(C(F)(F)F)cc(O)c1-c1cnc2oc(N3Cc4cnc(O)cc4C3)nc2n1` [Example 43, 2-[5-[2-Hydroxy-6-methyl-4-(trifluoromethyl)phenyl]oxazolo[4,5-b]pyrazin-2-yl]-1,3-dihydropyrrolo[3,4-c]pyridin-6-ol; 2,2,2-trifluoroacetic acid], for which the IC50 in assay [1] worked out at 0.128 µM; in assay [2], 0.0017 µM.
For the compound `Cc1cc(C(F)(F)F)cc(O)c1-c1ccc2oc(N3Cc4ccc(=O)[nH]c4C3)nc2n1` [Example 20, 6-[5-[2-Hydroxy-6-methyl-4-(trifluoromethyl)phenyl]oxazolo[4,5-b]pyridin-2-yl]-5,7-dihydro-1H-pyrrolo[3,4-b]pyridin-2-one], the IC50 in assay [1] was determined as 1.45 µM; in assay [2], 0.0042 µM.
For `COc1cc2c(cn1)CN(c1nc3nc(-c4c(C)cc(C(F)(F)F)cc4O)ccc3o1)C2` [Example 12, 2-[2-(6-Methoxy-1,3-dihydropyrrolo[3,4-c]pyridin-2-yl)oxazolo[4,5-b]pyridin-5-yl]-3-methyl-5-(trifluoromethyl)phenol] the same measures were 0.84 µM and 0.002 µM.
The matching figures for `Cc1cc(Cl)cc(O)c1-c1ccc2oc(N3CCc4n[nH]cc4C3)nc2n1` [Example 25, 5-Chloro-3-methyl-2-[2-(2,4,6,7-tetrahydropyrazolo[4,3-c]pyridin-5-yl)oxazolo[4,5-b]pyridin-5-yl]phenol]: 0.142 µM and 0.0256 µM.
For `Cc1cc(C(F)(F)F)cc(O)c1-c1ccc2oc(N3Cc4cncnc4C3)nc2n1` [Example 18, 2-[2-(5,7-Dihydropyrrolo[3,4-d]pyrimidin-6-yl)oxazolo[4,5-b]pyridin-5-yl]-3-methyl-5-(trifluoromethyl)phenol] the same measures were 2.35 µM and 0.0069 µM.
For the compound `Cc1cc(C(F)(F)F)cc(O)c1-c1ccc2oc(N3Cc4cc(=O)n(CCO)cc4C3)nc2n1` [Example 5, 5-(2-Hydroxyethyl)-2-[5-[2-hydroxy-6-methyl-4-(trifluoromethyl)phenyl]oxazolo[4,5-b]pyridin-2-yl]-1,3-dihydropyrrolo[3,4-c]pyridin-6-one], the results for the IC50 in assay [1] and in assay [2] were 0.151 µM and 0.0026 µM, respectively.
The matching figures for `Cc1cc(Cl)cc(O)c1-c1ccc2oc(N3CCc4ccncc4C3)nc2n1` [Example 15, 5-Chloro-2-[2-(3,4-dihydro-1H-2,7-naphthyridin-2-yl)oxazolo[4,5-b]pyridin-5-yl]-3-methyl-phenol]: 0.173 µM and 0.0105 µM.
For `Cc1cc(C#N)cc(O)c1-c1ccc2oc(N3Cc4c[nH]c(=O)cc4C3)nc2n1` [Example 3, 3-Hydroxy-5-methyl-4-[2-(6-oxo-3,5-dihydro-1H-pyrrolo[3,4-c]pyridin-2-yl)oxazolo[4,5-b]pyridin-5-yl]benzonitrile], the IC50 is 0.117 µM in assay [1] and 0.0077 µM in assay [2].

For orientation: IC50 means the concentration at which inhibition is half-maximal. Higher therefore signals lower potency.
